Earlier results, collected in patent publication US11685721B2, “Human plasma kallikrein inhibitors” (BioCryst Pharmaceuticals, Inc., priority 2014, dated 2023).

Test system: patients with hereditary angioedema (HAE)

| Compound | edema (patients with hereditary angioedema (HAE)) | treating HAE (hereditary angioedema) |
| --- | --- | --- |
| ecallantide [DX-88] | alleviates edema |  |
| NC(N)=NCCC[C@@H](N)C(=O)N[C@@H](CCCN=C(N)N)C(=O)N1CCC[C@H]1C(=O)N1C[C@H](O)C[C@H]1C(=O)NCC(=O)N[C@@H](Cc1cccs1)C(=O)N[C@@H](CO)C(=O)N1Cc2ccccc2C[C@@H]1C(=O)N1[C@H](C(=O)N[C@@H](CCCN=C(N)N)C(=O)O)C[C@@H]2CCCC[C@@H]21 [Icatibant] |  | effective |
